Article PMC9316761, “Thiosemicarbazide-Substituted Coumarins as Selective Inhibitors of the Tumor Associated Human Carbonic Anhydrases IX and XII” (Molecules, 2022)

Legend:
hCA I = biological target: T1, hCA I (Homo sapiens, UniProt P00915); test: stopped flow CO2 hydrase assay, hCA I; assay type: biochemical; conditions: mean from 3 assays, errors ±5–10%; 6 h preincubation
T1 construct: made in house

hCA II = biological target: T2, hCA II (Homo sapiens, UniProt P00918); test: stopped flow CO2 hydrase assay, hCA II; assay type: biochemical; conditions: mean from 3 assays, errors ±5–10%; 6 h preincubation
T2 construct: made in house

hCA IX = biological target: T3, hCA IX (Homo sapiens, UniProt Q16790); test: stopped flow CO2 hydrase assay, hCA IX; assay type: biochemical; conditions: for Ki: mean from 3 assays, errors ±5–10%, 6 h preincubation; for fold loss of hCA IX inhibition potency relative to 14a: Ki ratio versus 14a; for fold increase of hCA IX Ki relative to the 4-iodo derivative 18a: Ki ratio versus 18a; for fold more potent on hCA IX than 6-substituted counterpart: 7-substituted versus 6-substituted regioisomer (20a, 22a)
T3 construct: made in house

hCA XII = biological target: T4, hCA XII (Homo sapiens, UniProt O43570); test: stopped flow CO2 hydrase assay, hCA XII; assay type: biochemical; conditions: for fold more effective on hCA XII than 6-substituted counterpart: 7-substituted versus 6-substituted regioisomer (20a, 21a)
T4 construct: made in house
T4 sequence (O43570 25-354): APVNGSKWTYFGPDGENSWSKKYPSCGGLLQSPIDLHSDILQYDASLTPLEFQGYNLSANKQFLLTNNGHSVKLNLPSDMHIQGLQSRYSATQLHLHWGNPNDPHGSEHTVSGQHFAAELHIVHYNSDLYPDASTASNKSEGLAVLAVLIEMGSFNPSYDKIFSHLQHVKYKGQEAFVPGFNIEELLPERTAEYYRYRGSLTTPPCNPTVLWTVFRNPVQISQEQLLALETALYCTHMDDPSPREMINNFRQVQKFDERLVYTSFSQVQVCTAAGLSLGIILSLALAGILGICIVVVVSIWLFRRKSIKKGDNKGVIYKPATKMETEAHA

T1 sequence (P00915 whole entry): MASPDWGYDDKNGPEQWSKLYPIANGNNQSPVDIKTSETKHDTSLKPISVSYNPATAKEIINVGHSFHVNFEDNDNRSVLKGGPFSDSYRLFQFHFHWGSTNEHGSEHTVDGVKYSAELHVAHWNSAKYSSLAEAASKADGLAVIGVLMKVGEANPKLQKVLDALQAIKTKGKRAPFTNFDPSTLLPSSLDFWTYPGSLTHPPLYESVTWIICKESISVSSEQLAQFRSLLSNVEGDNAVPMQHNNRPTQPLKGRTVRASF

Row | Compound | Ki (hCA I) | Ki (hCA II) | fold more potent on hCA IX than on hCA XII (hCA IX; Ki hCA XII / Ki hCA IX) | Ki (hCA IX) | Ki (hCA XII) | melting point | fold loss of hCA IX inhibition potency relative to 14a (hCA IX) | fold increase of hCA IX Ki relative to 14b (hCA IX; Ki ratio versus 14b) | fold increase of hCA IX Ki relative to the 4-iodo derivative 18a (hCA IX) | fold more potent on hCA IX than 6-substituted counterpart (hCA IX) | fold more effective on hCA XII than 6-substituted counterpart (hCA XII) | fold less effective on hCA IX than on hCA XII (hCA XII; Ki hCA IX / Ki hCA XII)
1 | Cc1ccc(NC(=S)NNC(=O)COc2ccc3ccc(=O)oc3c2)cc1 [Compound 15b, N-(p-Tolyl)-2-(2-((2-oxo-2H-chromen-7-yl)oxy)acetyl)hydrazine-1-carbothioamide] | > 10000 nM | > 10000 nM |  | 78 nM | 684 nM | 147 to 149 °C (dec.) |  | 1.7 fold |  |  |  | 
2 | O=C(COc1ccc2ccc(=O)oc2c1)NNC(=S)Nc1ccc(Cl)cc1 [Compound 16b, N-(4-Chlorophenyl)-2-(2-((2-oxo-2H-chromen-7-yl)oxy)acetyl)hydrazine-1-carbothioamide] | > 10000 nM | > 10000 nM |  | 55 nM | 866 nM | 202 to 203 °C |  |  |  |  |  | 
3 | O=C(COc1ccc2ccc(=O)oc2c1)NNC(=S)Nc1ccc(F)cc1 [Compound 17b, N-(4-Fluorophenyl)-2-(2-((2-oxo-2H-chromen-7-yl)oxy)acetyl)hydrazine-1-carbothioamide] | > 10000 nM | > 10000 nM |  | 64 nM | 745 nM | 119 to 121 °C (dec.) |  |  |  |  |  | 
4 | O=C(COc1ccc2ccc(=O)oc2c1)NNC(=S)Nc1ccc(I)cc1 [Compound 18b, N-(4-Iodophenyl)-2-(2-((2-oxo-2H-chromen-7-yl)oxy)acetyl)hydrazine-1-carbothioamide] | > 10000 nM | > 10000 nM |  | 721 nM | 7.5 nM | 164 to 166 °C |  |  |  |  |  | 
5 | O=C(COc1ccc2ccc(=O)oc2c1)NNC(=S)Nc1cccc(I)c1 [Compound 19b, N-(3-Iodophenyl)-2-(2-((2-oxo-2H-chromen-7-yl)oxy)acetyl)hydrazine-1-carbothioamide] | > 10000 nM | > 10000 nM |  | 9.4 nM | 573 nM | 168 to 169 °C |  |  |  |  |  | 
6 | O=C(COc1ccc2oc(=O)ccc2c1)NNC(=S)Nc1ccc(C(F)(F)F)cc1 [Compound 20a, N-(4-(Trifluoromethyl)phenyl)-2-(2-((2-oxo-2H-chromen-6-yl)oxy)acetyl)hydrazine-1-carbothioamide] | > 10000 nM | > 10000 nM |  | 92 nM | 306 nM |  |  |  | 9.6 fold |  |  | 
7 | O=C(COc1ccc2ccc(=O)oc2c1)NNC(=S)Nc1ccc(C(F)(F)F)cc1 [Compound 20b, N-(4-(Trifluoromethyl)phenyl)-2-(2-((2-oxo-2H-chromen-7-yl)oxy)acetyl)hydrazine-1-carbothioamide] | > 10000 nM | > 10000 nM |  | 70 nM | 56.6 nM |  |  |  |  | 1.3 fold | 5.4 fold | 
8 | O=C(COc1ccc2ccc(=O)oc2c1)NNC(=S)Nc1cccc([N+](=O)[O-])c1 [Compound 21b, N-(3-Nitrophenyl)-2-(2-((2-oxo-2H-chromen-7-yl)oxy)acetyl)hydrazine-1-carbothioamide] | > 10000 nM | > 10000 nM |  | 9.1 nM | 8.6 nM | 214 to 215 °C |  |  |  |  | 38.2 fold | 
9 | CSc1ccc(NC(=S)NNC(=O)COc2ccc3oc(=O)ccc3c2)cc1 [Compound 22a, N-(4-(Methylthio)phenyl)-2-(2-((2-oxo-2H-chromen-6-yl)oxy)acetyl)hydrazine-1-carbothioamide] | > 10000 nM | > 10000 nM |  | 57 nM | 4 nM | 148 to 150 °C |  |  | 5.9 fold |  |  | 14 fold
10 | CSc1ccc(NC(=S)NNC(=O)COc2ccc3ccc(=O)oc3c2)cc1 [Compound 22b, N-(4-(Methylthio)phenyl)-2-(2-((2-oxo-2H-chromen-7-yl)oxy)acetyl)hydrazine-1-carbothioamide] | > 10000 nM | > 10000 nM |  | 33 nM | 4.6 nM | 163 to 164 °C |  |  |  | 1.7 fold |  | 
11 | N#Cc1ccc(NC(=S)NNC(=O)COc2ccc3ccc(=O)oc3c2)cc1 [Compound 23b, N-(4-Cyanophenyl)-2-(2-((2-oxo-2H-chromen-7-yl)oxy)acetyl)hydrazine-1-carbothioamide] | > 10000 nM | > 10000 nM |  | 437 nM | 473 nM | 224 to 226 °C |  |  |  |  |  | 

Next, values leading:

Row | Ki (hCA I) | Ki (hCA II) | fold more potent on hCA IX than on hCA XII (hCA IX; Ki hCA XII / Ki hCA IX) | Ki (hCA IX) | Ki (hCA XII) | melting point | fold loss of hCA IX inhibition potency relative to 14a (hCA IX) | fold increase of hCA IX Ki relative to 14b (hCA IX; Ki ratio versus 14b) | fold increase of hCA IX Ki relative to the 4-iodo derivative 18a (hCA IX) | fold more potent on hCA IX than 6-substituted counterpart (hCA IX) | fold more effective on hCA XII than 6-substituted counterpart (hCA XII) | fold less effective on hCA IX than on hCA XII (hCA XII; Ki hCA IX / Ki hCA XII) | Compound
12 | > 10000 nM | > 10000 nM | 84 fold | 8.8 nM | 739 nM | 173 to 175 °C |  |  |  |  |  |  | O=C(COc1ccc2oc(=O)ccc2c1)NNC(=S)Nc1ccccc1 [Compound 14a, N-Phenyl-2-(2-((2-oxo-2H-chromen-6-yl)oxy)acetyl)hydrazine-1-carbothioamide]
13 | > 10000 nM | > 10000 nM |  | 46 nM | 743 nM | 155 to 156 °C | 5.2 fold |  |  |  |  |  | O=C(COc1ccc2ccc(=O)oc2c1)NNC(=S)Nc1ccccc1 [Compound 14b, N-Phenyl-2-(2-((2-oxo-2H-chromen-7-yl)oxy)acetyl)hydrazine-1-carbothioamide]
14 | > 10000 nM | > 10000 nM |  | 234 nM | 709 nM | 167 to 169 °C | 26.6 fold |  |  |  |  |  | Cc1ccc(NC(=S)NNC(=O)COc2ccc3oc(=O)ccc3c2)cc1 [Compound 15a, N-(p-Tolyl)-2-(2-((2-oxo-2H-chromen-6-yl)oxy)acetyl)hydrazine-1-carbothioamide]
15 | > 10000 nM | > 10000 nM |  | 48 nM | 608 nM | 163 to 165 °C |  |  |  |  |  |  | O=C(COc1ccc2oc(=O)ccc2c1)NNC(=S)Nc1ccc(Cl)cc1 [Compound 16a, N-(4-Chlorophenyl)-2-(2-((2-oxo-2H-chromen-6-yl)oxy)acetyl)hydrazine-1-carbothioamide]
16 | > 10000 nM | > 10000 nM |  | 39 nM | 494 nM | 181 to 183 °C |  |  |  |  |  |  | O=C(COc1ccc2oc(=O)ccc2c1)NNC(=S)Nc1ccc(F)cc1 [Compound 17a, N-(4-Fluorophenyl)-2-(2-((2-oxo-2H-chromen-6-yl)oxy)acetyl)hydrazine-1-carbothioamide]
17 | > 10000 nM | > 10000 nM |  | 9.6 nM | 8.4 nM | 160 to 162 °C |  |  |  |  |  |  | O=C(COc1ccc2oc(=O)ccc2c1)NNC(=S)Nc1ccc(I)cc1 [Compound 18a, N-(4-Iodophenyl)-2-(2-((2-oxo-2H-chromen-6-yl)oxy)acetyl)hydrazine-1-carbothioamide]
18 | > 10000 nM | > 10000 nM |  | 9.6 nM | 79 nM | 144 to 146 °C |  |  |  |  |  |  | O=C(COc1ccc2oc(=O)ccc2c1)NNC(=S)Nc1cccc(I)c1 [Compound 19a, N-(3-Iodophenyl)-2-(2-((2-oxo-2H-chromen-6-yl)oxy)acetyl)hydrazine-1-carbothioamide]
19 | > 10000 nM | > 10000 nM |  | 71 nM | 328 nM | 210 to 212 °C |  |  |  |  |  |  | O=C(COc1ccc2oc(=O)ccc2c1)NNC(=S)Nc1cccc([N+](=O)[O-])c1 [Compound 21a, N-(3-Nitrophenyl)-2-(2-((2-oxo-2H-chromen-6-yl)oxy)acetyl)hydrazine-1-carbothioamide]
